Experimental data taken from PMC6270601, “Dimeric Labdane Diterpenes: Synthesis and Antiproliferative Effects” (Molecules, 2013).

How the values were obtained:
HL-60 cells = assay: Antiproliferative assay (MTT reduction), HL-60 promyelocytic leukemia cells; assay type: cell-based, human; details: Homo sapiens, 72 h; HL-60 promyelocytic leukemia; 3 days treatment, MTT reduction; mean ± SD; >100 µM considered inactive
Procedure: (§1) All human cell lines used in this work were purchased from the American Type Culture Collection (ATCC, Manasas, VA, USA). […] Promyelocytic leukemia HL-60 cells (CCL-240) were grown in suspension in RPM1 medium containing 1 mM sodium pyruvate and 2.0 g/L sodium bicarbonate. All media were supplemented with 10% heat-inactivated FBS, 100 IU/mL penicillin and 100 µg/mL streptomycin. Cells were grown in a humidified incubator with 5% CO2 in air at 37 °C. For the antiproliferative assay, adherent cells were plated at a density of 5 × 10^4 cells/mL and HL-60 cells at 30 × 10^4 cells/mL. Cells were seeded in 96-well plates (100 µL/well). One day after seeding, cells were treated with medium containing the compounds at concentrations ranging from 0 up to 100 µM during 3 days. The compounds were dissolved in DMSO (1% final concentration) and complete medium. Untreated cells (medium containing 1% DMSO) were used as 100% viability controls. […] Each concentration was tested in sextuplicate and experiments were repeated 2 times. Cell viability was determined by means of the MTT reduction assay at the end of the incubation with the products.

MRC-5 normal fibroblasts = assay: Antiproliferative assay (MTT reduction), MRC-5 normal lung fibroblasts; assay type: cell-based, human; details: Homo sapiens, MRC5, 72 h; MRC-5 normal fibroblasts; 3 days treatment, MTT reduction; mean ± SD; >100 µM considered inactive
Procedure: as §1

AGS cells = assay: Antiproliferative assay (MTT reduction), AGS gastric adenocarcinoma cells; assay type: cell-based, human; details: Homo sapiens, 72 h; AGS gastric adenocarcinoma; 3 days treatment, MTT reduction; mean ± SD; >100 µM considered inactive
Procedure: (§2) The compounds 1–20 were assessed for antiproliferative effect towards human lung fibroblasts (MRC-5) and the following human tumor cell lines: gastric adenocarcinoma (AGS), lung cancer cells (SK-MES-1), bladder carcinoma (J82) and promyelocytic leukemia (HL-60).
(§3) All human cell lines used in this work were purchased from the American Type Culture Collection (ATCC, Manasas, VA, USA). Normal lung MRC-5 fibroblasts (CCL-171), SK-MES-1 lung cancer cells (HTB-58) and J82 bladder carcinoma cells (HTB-1) were grown as monolayers in minimum essential Eagle medium (MEM) with Earles’s salts, 2 mM L-glutamine and 1.5 g/L sodium bicarbonate. Gastric adenocarcinoma AGS cells (CRL-1739) were grown as monolayers in Ham F-12 medium containing 1 mM L-glutamine and 1.5 g/L sodium bicarbonate. Promyelocytic leukemia HL-60 cells (CCL-240) were grown in suspension in RPM1 medium containing 1 mM sodium pyruvate and 2.0 g/L sodium bicarbonate. All media were supplemented with 10% heat-inactivated FBS, 100 IU/mL penicillin and 100 µg/mL streptomycin. Cells were grown in a humidified incubator with 5% CO2 in air at 37 °C. For the antiproliferative assay, adherent cells were plated at a density of 5 × 10^4 cells/mL and HL-60 cells at 30 × 10^4 cells/mL. Cells were seeded in 96-well plates (100 µL/well). One day after seeding, cells were treated with medium containing the compounds at concentrations ranging from 0 up to 100 µM during 3 days. The compounds were dissolved in DMSO (1% final concentration) and complete medium. Untreated cells (medium containing 1% DMSO) were used as 100% viability controls. […] Each concentration was tested in sextuplicate and experiments were repeated 2 times. Cell viability was determined by means of the MTT reduction assay at the end of the incubation with the products. The results were transformed to percentage of controls and the IC50 values were graphically obtained from the dose-response curves.

[1] = system: MRC-5, AGS, SK-MES-1, J82 and HL-60 cell lines; assay: Antiproliferative assay, panel of five human cell lines (summary in words); assay type: cell-based; details: SK-MES-1, J82, HL-60, up to 100 µM
Procedure: as §2, §3

[2] = system: J82 bladder carcinoma cells; assay: Antiproliferative assay (MTT reduction), J82 bladder carcinoma cells; assay type: cell-based, human; details: Homo sapiens, 72 h; J82 bladder carcinoma; 3 days treatment, MTT reduction; mean ± SD; >100 µM considered inactive
Procedure: as §1

[3] = system: SK-MES-1 lung cancer cells; assay: Antiproliferative assay (MTT reduction), SK-MES-1 lung cancer cells; assay type: cell-based, human; details: Homo sapiens, 72 h; SK-MES-1 lung cancer cells; 3 days treatment, MTT reduction; mean ± SD; >100 µM considered inactive
Procedure: as §1

Compound | IC50 (HL-60 cells) | IC50 (MRC-5 normal fibroblasts) | IC50 (AGS cells) | antiproliferative effect on the five cell lines (in words) [1] | IC50 [2] | IC50 [3]
C=C1CCC2[C@](C)(CCC[C@]2(C)C(=O)O)[C@H]1CC[C@@H](C)CCOC(=O)CCc1cn(CC[C@H](C)CC[C@H]2C(=C)CCC3[C@]2(C)CCC[C@]3(C)C(=O)OC)nn1 (stereo partly drawn) [Compound 19] | 42.4 ± 2.5 µM | > 100 µM | > 100 µM | no antiproliferative effect on any of the cell lines, except on HL-60 | > 100 µM | > 100 µM
C=C1CCC2[C@](C)(CCC[C@]2(C)C(=O)OC)[C@H]1CC[C@@H](C)CCn1cc(CCC(=O)OCC[C@H](C)CC[C@H]2C(=C)CCC3[C@]2(C)CCC[C@]3(C)C(=O)OC)nn1 (stereo partly drawn) [Compound 20] | > 100 µM | > 100 µM | > 100 µM | no antiproliferative effect on any of the cell lines | > 100 µM | > 100 µM
